# Measured values: patent EP0215136B1, “Hexetidin-containing therapeutically active agent, method for its preparation and its use as a vaginal disinfectant” (Artesan Pharma Gesellschaft mit beschränkter Haftung, priority 1985, dated 1987)
# How the values were obtained:
# [1] = Stability of hexetidine in aqueous solution; type: physicochemical; conditions: neutral to weakly acidic aqueous solution; rearranges to two isomers up to an equilibrium
# Excerpt: Aufgrund über Jahre geführter Untersuchungen sind die bekannten Methoden nicht geeignet, ein stabiles pharmazeutisches Präparat herzustellen. […] Es lagert sich bis zu einem Gleichgewicht in zwei isomere Substanzen um. Zwar wirken diese im Prinzip gleichartig, jedoch dürfen sie aus gesundheitsrechtlichen Gründen im Endprodukt nur geringfügig vorhanden sein.
# [2] = cited from earlier work
# [3] = cited from earlier work; remark: listed apart in the source
smiles,measurement,setting,value
"CCCCC(CC)CN1CN(CC(CC)CCCC)CC(C)(N)C1 (centres unmarked) [Hexetidin, 1,3-Bis-(2-ethylhexyl)-hexahydro-5-methyl-5-pyrimidinamin]",Haltbarkeit in wässeriger Lösung,[1],nur kurzfristig haltbar
same,Haut- und Schleimhaut-Verträglichkeit,[2]; known property,gute
same,Toxizität bei Resorption,[2]; known property,geringe
same,toxische Wirkung,"[2]; use as 0,1% gargle solution over 20 years",nie beobachtet
same,Löslichkeit in Alkohol,[3]; Alkohol,leicht löslich
same,Löslichkeit in Wasser,[3],nur schwer löslich
same,Löslichkeit in unpolaren organischen Lösungsmitteln,[3]; unpolare organische Lösungsmittel,leicht löslich
CCCCC(CC)CN1CN(CC(CC)CCCC)CC(C)(N)C1 (centres unmarked) [Hexetidinsalz],Löslichkeit in Wasser,[3],leicht löslich
